Assay results as given in article PMC11562016 (Structure (London, England : 1993), 2024).
Several values for one entry are separate records, joined by “and”; a condition that tells them apart may be missing. Equal entries are not always repeated. Where two headings read alike, the source gives them in different places.

Assays:
[1] = biological target: α1F207A:β GlyR (Homo sapiens, UniProt P23415+P48167, F235A)
[2] = tested on: α1β GlyR
[3] = biological target: α1:α1-β-α1 FYF (α1: α1F207A-βY231A-α1F207A) GlyR (Homo sapiens, UniProt P23415+P48167, F235A/Y253A)
Sequence of α1:α1-β-α1 FYF (α1: α1F207A-βY231A-α1F207A) GlyR (P23415 29-457, stated change not applied): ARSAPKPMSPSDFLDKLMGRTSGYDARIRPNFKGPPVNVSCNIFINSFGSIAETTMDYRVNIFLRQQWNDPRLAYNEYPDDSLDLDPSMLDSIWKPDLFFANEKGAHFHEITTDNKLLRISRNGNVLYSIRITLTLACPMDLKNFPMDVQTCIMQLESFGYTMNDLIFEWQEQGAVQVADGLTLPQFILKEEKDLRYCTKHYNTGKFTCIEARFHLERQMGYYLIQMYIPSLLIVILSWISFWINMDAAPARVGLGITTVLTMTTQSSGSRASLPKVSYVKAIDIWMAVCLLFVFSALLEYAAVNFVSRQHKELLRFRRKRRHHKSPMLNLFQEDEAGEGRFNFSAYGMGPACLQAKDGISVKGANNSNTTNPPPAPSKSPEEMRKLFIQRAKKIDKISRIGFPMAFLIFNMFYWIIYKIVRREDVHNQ
Sequence of α1:α1-β-α1 FYF (α1: α1F207A-βY231A-α1F207A) GlyR (P23415 29-457 F235A): as the sequence (P23415 29-457, stated change not applied) above, with F207A counted along it
Sequence of α1:α1-β-α1 FYF (α1: α1F207A-βY231A-α1F207A) GlyR (P48167 23-497 Y253A): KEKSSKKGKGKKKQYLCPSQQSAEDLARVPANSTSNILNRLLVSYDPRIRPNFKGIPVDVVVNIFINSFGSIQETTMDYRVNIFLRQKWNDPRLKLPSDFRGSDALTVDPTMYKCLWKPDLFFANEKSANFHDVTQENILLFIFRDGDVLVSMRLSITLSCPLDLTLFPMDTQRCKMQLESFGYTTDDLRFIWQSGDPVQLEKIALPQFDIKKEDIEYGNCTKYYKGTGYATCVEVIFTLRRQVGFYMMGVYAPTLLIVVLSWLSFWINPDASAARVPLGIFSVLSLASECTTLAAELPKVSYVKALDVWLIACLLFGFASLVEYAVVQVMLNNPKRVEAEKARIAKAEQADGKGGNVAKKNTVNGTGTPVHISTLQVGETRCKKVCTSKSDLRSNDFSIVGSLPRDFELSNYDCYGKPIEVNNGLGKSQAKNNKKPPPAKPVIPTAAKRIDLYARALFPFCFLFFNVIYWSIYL
Sequence of α1:α1-β-α1 FYF (α1: α1F207A-βY231A-α1F207A) GlyR (P23415 29-457 F235A): as the sequence (P23415 29-457, stated change not applied) above, with F207A counted along it

[4] = biological target: α1F207A:α1-β-α1 GlyR (Homo sapiens, UniProt P23415+P48167, F235A)
Sequence of α1F207A:α1-β-α1 GlyR (P23415 29-457 F235A): as the sequence (P23415 29-457, stated change not applied) above, with F207A counted along it
Sequence of α1F207A:α1-β-α1 GlyR (P23415 29-457, stated change not applied): as the sequence (P23415 29-457, stated change not applied) above
Sequence of α1F207A:α1-β-α1 GlyR (P48167 23-497): as the sequence (P48167 23-497 Y253A) above, with A231Y counted along it
Sequence of α1F207A:α1-β-α1 GlyR (P23415 29-457, stated change not applied): as the sequence (P23415 29-457, stated change not applied) above

[5] = biological target: α1:βY231A GlyR (Homo sapiens, UniProt P23415+P48167, Y253A)
Sequence of α1:βY231A GlyR (P23415 29-457): as the sequence (P23415 29-457, stated change not applied) above
Sequence of α1:βY231A GlyR (P48167 23-497 Y253A): as the sequence (P48167 23-497 Y253A) above

[6] = biological target: α1:βR86TY231A GlyR (Homo sapiens, UniProt P23415+P48167, R108T/Y253A)
Sequence of α1:βR86TY231A GlyR (P23415 29-457): as the sequence (P23415 29-457, stated change not applied) above
Sequence of α1:βR86TY231A GlyR (P48167 23-497 R108T/Y253A): as the sequence (P48167 23-497 Y253A) above, with R86T counted along it

[7] = tested on: α1β GlyR with mutation of a single α-α or α-β site; settings: Supplementary Fig.S4
[8] = biological target: α1:α1-β-α1 RFYF (α1: α1R65DF207A-βY231A-α1F207A) GlyR (Homo sapiens, UniProt P23415+P48167, F235A/R93D/Y253A)
Sequence of α1:α1-β-α1 RFYF (α1: α1R65DF207A-βY231A-α1F207A) GlyR (P23415 29-457, stated change not applied): as the sequence (P23415 29-457, stated change not applied) above
Sequence of α1:α1-β-α1 RFYF (α1: α1R65DF207A-βY231A-α1F207A) GlyR (P23415 29-457 R93D/F235A): as the sequence (P23415 29-457, stated change not applied) above, with R65D, F207A counted along it
Sequence of α1:α1-β-α1 RFYF (α1: α1R65DF207A-βY231A-α1F207A) GlyR (P48167 23-497 Y253A): as the sequence (P48167 23-497 Y253A) above
Sequence of α1:α1-β-α1 RFYF (α1: α1R65DF207A-βY231A-α1F207A) GlyR (P23415 29-457 F235A): as the sequence (P23415 29-457, stated change not applied) above, with F207A counted along it

[9] = tested on: α1sβsg GlyR; settings: for τdes: desensitization
[10] = biological target: α1F207A:α1-β GlyR (Homo sapiens, UniProt P23415+P48167, F235A)
Sequence of α1F207A:α1-β GlyR (P23415 29-457 F235A): as the sequence (P23415 29-457, stated change not applied) above, with F207A counted along it
Sequence of α1F207A:α1-β GlyR (P23415 29-457, stated change not applied): as the sequence (P23415 29-457, stated change not applied) above
Sequence of α1F207A:α1-β GlyR (P48167 23-497): as the sequence (P48167 23-497 Y253A) above, with A231Y counted along it

[11] = biological target: human α1β GlyR (α1:β, α1wtβwt) (Homo sapiens, UniProt P23415+P48167); settings: for τdes: desensitization
Sequence of human α1β GlyR (α1:β, α1wtβwt) (P23415 29-457): as the sequence (P23415 29-457, stated change not applied) above
Sequence of human α1β GlyR (α1:β, α1wtβwt) (P48167 23-497): as the sequence (P48167 23-497 Y253A) above, with A231Y counted along it

[12] = glycine dose-response, Hill fit

Sequence of α1F207A:β GlyR (P23415 29-457 F235A): as the sequence (P23415 29-457, stated change not applied) above, with F207A counted along it
Sequence of α1F207A:β GlyR (P48167 23-497): as the sequence (P48167 23-497 Y253A) above, with A231Y counted along it

`NCC(=O)O` [glycine, Glycine] was tested. Which “Imax, maximum glycine-induced current amplitude” value [1] did it give?
Its value is 0.8 ± 0.2 nA.

And the “nh (Hill coefficent)” value [1, 12]?
The value was 1.4 ± 1.5.

And the “desensitization forward rate constant kdes” value ([2]; model parameter)?
Its value is 0.18 ± 0.05 and 0.18.

What about the “desensitization reverse rate constant kdes_r” value ([2]; model parameter) of the same compound?
Its value is 0.007 ± 0.002 and 0.007.

And the “rate scaler after desensitization ndes” value ([2]; model parameter)?
Its value is 0.006 ± 0.007 and 0.006.

What about the “dissociation rate constants kdα = kdβ” value ([2]; model parameter matched to full recording traces) of the same compound?
Its value is 10 ± 2.

And the “Imax, maximum glycine-induced current amplitude” value [3]?
The value was 4.5 ± 0.7 nA.

And the “nh (Hill coefficent)” value [3, 12]?
The value was 2.2 ± 0.4.

What about the “Imax, maximum glycine-induced current amplitude” value [4] of the same compound?
Its value is 0.5 ± 0.1 nA.

What about the “nh (Hill coefficent)” value [4, 12] of the same compound?
Its value is 1.8 ± 3.3.

And the “Imax, maximum glycine-induced current amplitude” value [5]?
Its value is 5.0 ± 0.7 nA.

And the “nh (Hill coefficent)” value [5, 12]?
Its value is 3.1 ± 0.5.

And the “Imax, maximum glycine-induced current amplitude” value [6]?
The value was 7.1 ± 0.5 nA.

And the “nh (Hill coefficent)” value [6, 12]?
Its value is 2.1 ± 0.3.

What about the EC50 [7] of the same compound?
Its EC50 is about 140 µM.

And the “Imax, maximum glycine-induced current amplitude” value [8]?
Its value is 0.8 ± 0.3 nA.

And the “nh (Hill coefficent)” value [8, 12]?
Its value is 1.6 ± 2.0.

And the “channel activation by glycine” value ([8]; only 1 intact glycine site)?
The value was “inactive”.

What about the “I des / Imax” value ([9]; 40 μM glycine) of the same compound?
Its value is 0.74 ± 0.05.

What about the τclose ([9]; 40 μM glycine) of the same compound?
Its τclose is 0.4 ± 0.1 s.

And the τopen ([9]; 40 μM glycine)?
Its τopen is 0.9 ± 0.1 s.

What about the τdes ([9]; 40 μM glycine) of the same compound?
The τdes was 5.4 ± 1.2 s.

What about the “I des / Imax” value ([9]; 100 μM glycine) of the same compound?
The value was 0.38 ± 0.05.

What about the τclose ([9]; 100 μM glycine) of the same compound?
Its τclose is 0.5 ± 0.1 s.

What about the τopen ([9]; 100 μM glycine) of the same compound?
The τopen was 0.5 ± 0.1 s.

And the τdes ([9]; 100 μM glycine)?
Its τdes is 7.0 ± 1.3 s.

And the “I des / Imax” value ([9]; 1000 μM glycine)?
The value was 0.17 ± 0.03.

What about the τclose ([9]; 1000 μM glycine) of the same compound?
The τclose was 0.9 ± 0.3 s.

What about the τopen ([9]; 1000 μM glycine) of the same compound?
Its τopen is 0.06 ± 0.01 s.

What about the τdes ([9]; 1000 μM glycine) of the same compound?
Its τdes is 8.8 ± 1.8 s.

And the EC50 ([9]; glycine response normalized to 1 mM glycine)?
The EC50 was about 100 µM.

What about the “Imax, maximum glycine-induced current amplitude” value [10] of the same compound?
Its value is 0.2 ± 0.1 nA.

And the “nh (Hill coefficent)” value [10, 12]?
The value was 1.0 ± 0.6.

What about the “current remaining after desensitization” value ([11]; 40 μM glycine) of the same compound?
Its value is ~ 66%.

What about the τclose ([11]; 40 μM glycine) of the same compound?
Its τclose is 0.3 ± 0.1 s.

What about the τopen ([11]; 40 μM glycine) of the same compound?
The τopen was 0.6 ± 0.3 s.

What about the τdes ([11]; 40 μM glycine) of the same compound?
The τdes was 4.8 ± 0.9 s.

What about the τclose ([11]; 100 μM glycine) of the same compound?
The τclose was 0.3 ± 0.1 s.

And the τopen ([11]; 100 μM glycine)?
The τopen was 0.18 ± 0.03 s.

What about the τdes ([11]; 100 μM glycine) of the same compound?
Its τdes is 7.5 ± 1.2 s.

And the τclose ([11]; 200 μM glycine)?
The τclose was 1.1 ± 0.1 s.

What about the τopen ([11]; 200 μM glycine) of the same compound?
The τopen was 0.07 ± 0.01 s.

And the τdes ([11]; 200 μM glycine)?
Its τdes is 7.8 ± 0.6 s.

And the “current remaining after desensitization” value ([11]; 1 mM glycine)?
Its value is ~ 18%.

What about the τclose ([11]; 1000 μM glycine) of the same compound?
The τclose was 1.0 ± 0.1 s.

What about the τopen ([11]; 1000 μM glycine) of the same compound?
Its τopen is 0.06 ± 0.01 s.

What about the τdes ([11]; 1000 μM glycine) of the same compound?
The τdes was 6.5 ± 0.4 s.

What about the “increase in desensitization recovery time constant” value ([11]; 1 mM vs 40 μM glycine) of the same compound?
Its value is ~ 7 fold.

And the “increase in the extent of desensitization” value ([11]; 1 mM vs 40 μM glycine)?
Its value is ~ 4 fold.

And the “current remaining after desensitization (residual activity)” value ([11]; 10 mM glycine)?
Its value is ~ 3%.

And the desensitization time constants ([11]; across glycine concentrations 40 μM to 10 mM)?
Its desensitization time constants is 5 to 8 s.

What about the τclose ([11]; beyond 200 μM glycine) of the same compound?
Its τclose is ~ 1.1 s.

What about the “nh (Hill coefficent)” value [11, 12] of the same compound?
The value was 2.5 ± 0.4.

And the “minimum τopen” value ([11]; increased glycine concentrations, likely limited by instrument)?
The value was 60 ms.

And the “Imax, maximum glycine-induced current amplitude” value ([11]; whole-cell, -70 mV)?
Its value is 7.0 ± 0.9 nA.
